Consider six compounds from patent US20090087841A1, “METHODS AND COMPOSITIONS FOR D[…] HIV-1 TO PROTEASE INHIBITORS” (Monogram Biosciences, Inc., priority 2005, published 2009).

In the test the test system is HIV-1 viral population of patient sample 848. In words: Resistance test vector phenotypic drug susceptibility assay of patient sample 848. Type of test: cell-based. The following applies: mixed viral population in sample 848, FIG. 3. The text has this:
Patient-derived segment(s) corresponding to the HIV protease and reverse transcriptase coding regions were amplified by the reverse transcription-polymerase chain reaction method (RT-PCR) using viral RNA isolated from viral particles present in the plasma or serum of HIV-infected individuals as follows. Viral RNA was isolated from the plasma or serum using oligo-dT magnetic beads (Dynal Biotech, Oslo, Norway), followed by washing and elution of viral RNA. The RT-PCR protocol was divided into two steps. A retroviral reverse transcriptase (e.g. Moloney MuLV reverse transcriptase (Roche Molecular Systems, Inc., Branchburg, N.J.; Invitrogen, Carlsbad, Calif.), or avian myeloblastosis virus (AMV) reverse transcriptase (Roche Molecular Systems, Inc., Branchburg, N.J.), or) was used to copy viral RNA into cDNA. The cDNA was then amplified using a thermostable DNA polymerase (e.g. Taq (Roche Molecular Systems, Inc., Branchburg, N.J.), Tth (Roche Molecular Systems, Inc., Branchburg, N.J.), PRIMEZYME™ (isolated from Thermus brockianus, Biometra, Gottingen, Germany)) or a combination of thermostable polymerases as described for the performance of “long PCR” Barnes, W. M., 1994, Proc. Natl. Acad. Sci, USA 91, 2216-20) (e.g. Expand High Fidelity PCR System (Taq+Pwo), (Boehringer Mannheim. Indianapolis, Ind.); GENEAMP XL™ PCR kit (Tth+Vent), (Roche Molecular Systems, Inc., Branchburg, N.J.); or ADVANTAGE II®, Clontech, Palo Alto, Calif.)
Resistance test vectors incorporating the “test” patient-derived segments were constructed as described in U.S. Pat. No. 5,837,464 using an amplified DNA product of 1.5 kB prepared by RT-PCR using viral RNA as a template and oligonucleotides PDS Apa, PDS Age, PDS PCR6, Apa-gen, Apa-c, Apa-f, Age-gen, Age-a, RT-ad, RT-b, RT-c, RT-f, and/or RT-g as primers, followed by digestion with ApaI and AgeI or the isoschizomer PinA1. To ensure that the plasmid DNA corresponding to the resultant fitness test vector comprises a representative sample of the HIV viral quasi-species present in the serum of a given patient, many (>250) independent E. coli transformants obtained in the construction of a given fitness test vector are pooled and used for the preparation of plasmid DNA.
A packaging expression vector encoding an amphotrophic MuLV 4070A env gene product enables production in a resistance test vector host cell of resistance test vector viral particles which can efficiently infect human target cells. Resistance test vectors encoding all HIV genes with the exception of env were used to transfect a packaging host cell (once transfected the host cell is referred to as a fitness test vector host cell). The packaging expression vector which encodes the amphotrophic MuLV 4070A env gene product is used with the resistance test vector to enable production in the resistance test vector host cell of infectious pseudotyped resistance test vector viral particles.
Drug resistance tests performed with resistance test vectors were carried out using packaging host and target host cells consisting of the human embryonic kidney cell line 293. See U.S. Pat. No. 5,837,464.
Resistance tests were carried out with resistance test vectors using two host cell types. Resistance test vector viral particles were produced by a first host cell (the resistance test vector host cell) that was prepared by transfecting a packaging host cell with the resistance test vector and the packaging expression vector. The resistance test vector viral particles were then used to infect a second host cell (the target host cell) in which the expression of the indicator gene is measured.
The resistance test vectors containing a functional luciferase gene cassette were constructed as described above and host cells were transfected with the resistance test vector DNA. […]
Consider `Cc1cccc(C)c1OCC(=O)N[C@@H](Cc1ccccc1)[C@@H](O)C[C@H](Cc1ccccc1)NC(=O)[C@H](C(C)C)N1CCCNC1=O` [LPV, lopinavir], for which the “phenotypic resistance score of the viral population” value (shortened to “phenotypic resistance score”) is recorded as “resistant”.

On to `Cc1c(O)cccc1C(=O)N[C@@H](CSc1ccccc1)[C@H](O)CN1C[C@H]2CCCC[C@H]2C[C@H]1C(=O)NC(C)(C)C` [NFV, nelfinavir], for which the “phenotypic resistance score” value is listed as “resistant”.

Turning to `CC(C)c1nc(CN(C)C(=O)N[C@H](C(=O)N[C@@H](Cc2ccccc2)C[C@H](O)[C@H](Cc2ccccc2)NC(=O)OCc2cncs2)C(C)C)cs1` [RTV, ritonavir], the “phenotypic resistance score” value is “resistant”.

For the compound `CC(C)(C)NC(=O)[C@@H]1CN(Cc2cccnc2)CCN1C[C@@H](O)C[C@@H](Cc1ccccc1)C(=O)N[C@H]1c2ccccc2C[C@H]1O` [IDV, indinavir], the “phenotypic resistance score” value is reported as “resistant”.

For the compound `CC(C)(C)NC(=O)[C@@H]1C[C@@H]2CCCC[C@@H]2CN1C[C@@H](O)[C@H](Cc1ccccc1)NC(=O)[C@H](CC(N)=O)NC(=O)c1ccc2ccccc2n1` [SQV, saquinavir], the “phenotypic resistance score” value is recorded as “resistant”.

`CC(C)CN(C[C@@H](O)[C@H](Cc1ccccc1)NC(=O)O[C@H]1CCOC1)S(=O)(=O)c1ccc(N)cc1` [AMP, amprenavir]: the “phenotypic resistance score” value is recorded as “resistant”.
